Experiment [1] addresses acetylcholinesterase (Homo sapiens (Human), UniProt P22303). As to the kind of experiment: biochemical. The class given is biochemical. Particulars: for potency on acetylcholinesterase compared with positive control drug donepezil hydrochloride: in vitro, enzymology level; for IC50: read-out: IC50 (nM), inhibition activity on acetylcholinesterase.
Experiment [2] relates to learning and memory disorder of mice induced by scopolamine. As to the kind of experiment: Morris water maze test, senile dementia mice model induced by scopolamine. The class given is in vivo. To be noted: for latent period day 1 / latent period day 2 / latent period day 3 / latent period day 4 / latent period day 5 / times of crossing platform: Table 3, scopolamine 1 mg/kg.

Structures are written as SMILES. Like-named read-outs stand apart in the source and are kept apart here.

acetylcholinesterase, sequence (P22303 32-614, species assumed): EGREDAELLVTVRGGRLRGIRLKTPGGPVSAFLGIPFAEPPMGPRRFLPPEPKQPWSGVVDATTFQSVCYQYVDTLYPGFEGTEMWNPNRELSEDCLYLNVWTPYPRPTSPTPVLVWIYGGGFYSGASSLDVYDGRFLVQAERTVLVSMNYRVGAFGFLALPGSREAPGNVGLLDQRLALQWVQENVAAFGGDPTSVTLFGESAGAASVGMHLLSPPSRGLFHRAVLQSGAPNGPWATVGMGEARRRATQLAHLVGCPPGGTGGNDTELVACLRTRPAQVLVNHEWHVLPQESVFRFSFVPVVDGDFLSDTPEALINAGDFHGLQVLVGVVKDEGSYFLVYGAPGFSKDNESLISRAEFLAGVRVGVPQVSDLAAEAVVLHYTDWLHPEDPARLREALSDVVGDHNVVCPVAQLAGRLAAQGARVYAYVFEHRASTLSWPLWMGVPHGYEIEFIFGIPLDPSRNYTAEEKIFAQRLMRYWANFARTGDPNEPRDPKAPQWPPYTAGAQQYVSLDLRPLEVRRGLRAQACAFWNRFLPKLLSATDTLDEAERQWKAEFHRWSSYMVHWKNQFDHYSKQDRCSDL

For orientation: IC50 means the midpoint of a concentration-inhibition curve. `O=C1c2cc3c(cc2C(=O)N1CCC1CCN(Cc2cccc(F)c2)CC1)OCO3` [Compound I-3, 6-[2-[1-[(3-fluorophenyl)methyl]-4-piperidyl]ethyl]-[1,3]dioxolo[4,5-f]isoindole-5,7-dione]: the “potency on acetylcholinesterase compared with positive control drug donepezil hydrochloride” value in experiment [1] is “slightly lower potency than the positive control drug”. Also, the IC50 in experiment [1] (modified Ellman method) amounted to 269 nM. Moreover, the “effect on learning and memory disorder of mice induced by scopolamine” value in experiment [2] (Morris water maze, in comparison with model group / donepezil hydrochloride group) is “decreases significantly”. In addition, in experiment [2] (5 mg/kg intragastric), the “latent period day 1” value is recorded as 56.5 ± 8.5 s, the “latent period day 2” value was 56.5 ± 8.6 s, the “latent period day 3” value is 60 ± 0 s and the “latent period day 4” value is 43.9 ± 15.4 s. For the same compound, in experiment [2] (5 mg/kg intragastric), the “latent period day 5” value turned out to be 34.0 ± 19.5 s and the “times of crossing platform” value came to 1.9 ± 1.5. In experiment [2] (10 mg/kg intragastric), the “latent period day 1” value is reported as 59.3 ± 2.6 s, the “latent period day 2” value amounted to 56.3 ± 9.7 s, the “latent period day 3” value turned out to be 55.5 ± 9.5 s and the “latent period day 4” value is 49.4 ± 15.7 s. Moreover, in experiment [2] (10 mg/kg intragastric), the “latent period day 5” value is 45.0 ± 15.0 s and the “times of crossing platform” value was determined as 1.1 ± 1.1.
As to `O=C1c2cc3c(cc2C(=O)N1CCC1CCN(Cc2cccnn2)CC1)OCO3` [Compound I-37, 6-[2-[1-(pyridazin-3-ylmethyl)-4-piperidyl]ethyl]-[1,3]dioxolo[4,5-f]isoindole-5,7-dione], the “potency on acetylcholinesterase compared with positive control drug donepezil hydrochloride” value in experiment [1] was “even lower”. The IC50 in experiment [1] (modified Ellman method) was 905 nM.
For `O=C1c2cc3c(cc2C2(CC2)N1CCC1CCN(Cc2cccnn2)CC1)OCO3` [Compound I-38, 6-[2-[1-(pyridazin-3-ylmethyl)-4-piperidyl]ethyl]spiro[[1,3]dioxolo[4,5-f]isoindole-7,1′-cyclopropane]-5-one], in experiment [1], the “potency on acetylcholinesterase compared with positive control drug donepezil hydrochloride” value is listed as “relative low activity” and the IC50 was greater than 2000 nM.
Take `O=C1c2cc3c(cc2C2(CC2)N1CCC1CCN(Cc2ccc[nH]2)CC1)OCO3` [Compound I-39, 6-[2-[1-(1H-pyrrol-2-ylmethyl)-4-piperidyl]ethyl]spiro[[1,3]dioxolo[4,5-f]isoindole-7,1′-cyclopropane]-5-one]: in experiment [1], the “potency on acetylcholinesterase compared with positive control drug donepezil hydrochloride” value is “relative low activity” and the IC50 is greater than 2000 nM.
As to `Cc1ccc(CN2CCC(CCN3C(=O)c4cc5c(cc4C34CC4)OCO5)CC2)[nH]1` [Compound I-40, 6-[2-[1-[(5-methyl-1H-pyrrol-2-yl)methyl]-4-piperidyl]ethyl]spiro[[1,3]dioxolo[4,5-f]isoindole-7,1′-cyclopropane]-5-one], in experiment [1], the “potency on acetylcholinesterase compared with positive control drug donepezil hydrochloride” value is reported as “relative low activity” and the IC50 was greater than 2000 nM.
Turning to `O=C1c2cc3c(cc2C2(CC2)N1CCC1CCN(Cc2ccn[nH]2)CC1)OCO3` [Compound I-41, 6-[2-[1-(1H-pyrazol-5-ylmethyl)-4-piperidyl]ethyl]spiro[[1,3]dioxolo[4,5-f]isoindole-7,1′-cyclopropane]-5-one], in experiment [1], the “potency on acetylcholinesterase compared with positive control drug donepezil hydrochloride” value is reported as “even lower” and the IC50 stood at 990 nM.

Source of the values: patent publication US9346818B2 (priority 2012, dated 2016).
